In patent publication US9029518B2, “Method of extracting kaempferol-based antioxidants from Solenostemma arghel” (priority 2012, dated 2015):

Legend:
[1] = tested on: carrageenan-induced rat paw edema; assay: Carrageenan-induced rat paw edema (anti-inflammatory); format: in vivo
From the text: The total alcohol (ethanol) extract was given at doses of 0.25, 0.5 and 1 g/kg, respectively, and fractions were given in doses of 0.25 g/kg. […]

[2] = tested on: acetic acid-induced writhes in mice; assay: Acetic acid-induced writhes in mice (peripheral analgesic activity); format: in vivo
[3] = tested on: response of mice to hot plate thermal stimulation; assay: Hot plate test (central analgesic activity); format: in vivo; conditions: for Latency (mean latency time until licking or jumping): time 0 min, hot plate 55° C.; for central analgesic activity compared with methamizol 0.05 g/kg: total ethanol extract 0.25, 0.5 and 1 g/kg, fractions 0.25 g/kg, C1 and C2 0.1 g/kg, I.P.
Method: The total alcoholic extract was given at doses of 0.25, 0.5 and 1.0 g/kg, respectively, fractions were given at doses of 0.25 g/kg, and compounds were given at doses of 0.1 g/kg. The effect of the alcoholic extract, fractions and isolated compounds are shown in FIGS. 3A, 3B and 3C, respectively, and given below in Table 3.
FIGS. 3A, 3B and 3C graphically illustrate the mean latency time (in seconds) until licking or jumping. This was recorded with mice being placed in a glass beaker, which was placed on a hot plate, which was maintained at 55° C. Measurements were taken 20, 60 and 90 minutes, respectively, after intraperitoneal injection of fractions (0.25 g/kg) and the isolated compounds (0.1 g/kg) from Solenostemma arghel, compared with the control group and methamizol.
This effect started after 20 min. and persisted for 90 min. after I.P. administration of the extracts.

[4] = DPPH free radical scavenging activity; format: biochemical
Method: The antipyretic activity was estimated using Brewer's yeast-induced hyperpyrexia in rats. Both water and total alcohol extracts were separately given orally at doses of 0.25, 0.5 and 1.0 g/kg, respectively. The antioxidant activity was evaluated using 2,2-diphenyl-1-picrylhydrazyl (DPPH) free radical scavenging activity. A 0.05 ml sample of the test compound was added to a methanol solution of DPPH (100 μM 2.95 ml) dissolved in methanol. The compound was added at different concentrations of 2, 4, 6, 8 and 10 mg/ml, respectively, as well as for water, and the total ethanol extracts and fractions. Concentrations of 1, 2, 3, 4 and 5 mg/ml were used for C1 and C2. Equal amounts of methanol were added to the control. Absorbance was recorded at 517 nm at regular intervals of 15 s for 5 min. Ascorbic acid (100 μM) was used as a standard.
The results are shown in Table 4 below, and in FIGS. 4A and 4B.
With regard to antioxidant activity (in vitro), all extracts were tested at concentrations of 2, 4, 6, 8 and 10 mg/ml.

Row | SMILES | % inhibition of control ([1]; dose 0.1 g/kg oral, time 1 h) [%] | % inhibition of control ([1]; dose 0.1 g/kg oral, time 2 h) [%] | % inhibition of control ([1]; dose 0.1 g/kg oral, time 3 h) [%] | % Protection of control ([2]; dose 0.1 g/kg oral) [%] | Latency (mean latency time until licking or jumping) ([3]; dose 0.1 g/kg I.P.) [s] | central analgesic activity compared with methamizol 0.05 g/kg [3] | Radical scavenging activity (%) ± S.D. ([4]; concentration 1 mg/ml) [%] | Radical scavenging activity (%) ± S.D. ([4]; concentration 2 mg/ml) [%] | Radical scavenging activity (%) ± S.D. ([4]; concentration 3 mg/ml) [%] | Radical scavenging activity (%) ± S.D. ([4]; concentration 4 mg/ml) [%] | Radical scavenging activity (%) ± S.D. ([4]; concentration 5 mg/ml) [%] | further results
1 | O=c1c(O[C@@H]2O[C@H](CO)[C@@H](O)[C@H](O)[C@H]2O)c(-c2ccc(O[C@@H]3O[C@H](CO)[C@@H](O)[C@H](O)[C@H]3O)cc2)oc2cc(O)cc(O)c12 [C1, kaempferol-3, 4′-diglucoside] | 59.06 | 71.31 | 53.93 | 59.02 | 5.50 ± 0.85 | significantly (P<0.05) greater than that of methamizol | 26.51 ± 1.01 | 37.94 ± 0.98 | 52.63 ± 0.99 | 67.72 ± 1.12 | 83.40 | 
2 | C[C@H]1O[C@H](OC[C@H]2O[C@@H](Oc3c(-c4ccc(O)cc4)oc4cc(O)cc(O)c4c3=O)[C@H](O)[C@@H](O)[C@@H]2O)[C@@H](O)[C@@H](O)[C@@H]1O [C2, kaempferol-3-rutinoside] | 62.50 | 70.02 | 53.60 | 68.90 | 5.80 ± 0.79 | significantly (P<0.05) greater than that of methamizol | 30.28 ± 1.10 | 39.64 ± 0.88 | 65.30 ± 0.98 | 70.12 ± 1.01 | 86.50 | 
3 | O=C(O)Cc1ccccc1Nc1c(Cl)cccc1Cl [Diclofenac sodium, diclofenac sodium, reference compound] |  |  |  |  |  |  |  |  |  |  |  | % inhibition of control ([1]; dose 0.03 g/kg, time 0 h (so in the source)): 30.24%; % inhibition of control ([1]; dose 0.03 g/kg, time 2 h): 48.42%; % inhibition of control ([1]; dose 0.03 g/kg, time 3 h): 54.69%
4 | Cc1c(N(C)CS(=O)(=O)[O-])c(=O)n(-c2ccccc2)n1C.[Na+] [Methamizol, methamizol, reference compound] |  |  |  |  |  |  |  |  |  |  |  | % Protection of control ([2]; dose 0.05 g/kg): 52.32%; Latency (mean latency time until licking or jumping) ([3]; dose 0.05 g/kg): 5.26 ± 0.94 s
5 | O=C1O[C@H]([C@@H](O)CO)C(O)=C1O [ascorbic acid, reference compound] |  |  |  |  |  |  |  |  |  |  |  | scavenging activity towards DPPH radicals ([4]; concentration 100 μM (standard)): 87.8%
